This is an account of results in patent publication US8415371B2, “Methods and kits for treating cluster headache disorders” (priority 2008, dated 2013).

“Also recorded” adds a separate entry of the source.

Series [1] concerns subjects diagnosed with chronic cluster headache disorder. The experiment in a line: Treatment of chronic cluster headache disorder with bromolysergide, two adult subjects (Example 1). The settings on record: once every five days. The class given is in vivo, human. As for the experimental part:
The desired amount of bromolysergide (hydrochloride salt) was mixed with dextrose and placed into gelatin capsules for administration to subjects suffering from chronic cluster headache disorder.
Bromolysergide was administered to two adult subjects diagnosed with chronic cluster headache disorder during a cluster period. A dose of 2 mg of 2-bromolysergic acid dethylamide (30 μg/kg body weight) was administered orally to subject 1 three times, once every five days. A dose of 2.5 mg of 2-bromolysergic acid dethylamide (approximately 30 μg/kg body weight) was administered orally to subject 2 three times, once every five days.
Subjects were asked to rate their symptoms following administration of bromolysergide.

Series [2] deals with treatment-refractory cluster headache patients. Description: Compassionate use of bromolysergide in treatment-refractory cluster headache patients, daily headache diary (Example 3). The class given is in vivo, human. The settings on record: for continuous period of attack quiescence: indicates transition from chronic to episodic form. An excerpt: (§1) Patients referred to the Pain Clinic at the Hannover Medical School were identified with cluster headache if they met the respective diagnostic criteria of the international classification of headache disorders (Headache Classification Committee of the International Headache Society (2004) The International Classification of Headache Disorders, 2nd edn. Cephalalgia 24 Suppl 1:1-160). In addition, all patients were non-responders to verapamil and other prophylactic medications (i.e., refractory to the prophylactic medications listed in Table 1 for each patient). In accordance with German national and local ethics committee rules, all patients signed an informed consent, in which the patients declared their agreement to participate in this project on the compassionate use of bromolysergide for cluster headache. Patients kept a standardized daily diary of cluster headache symptoms starting at least two weeks prior to bromolysergide administration. Bromolysergide (hydrochloride salt) was manufactured by THCpharm GmbH (Frankfurt am Main, Germany). A purity of >99.2% was identified by HPLC and other analytical tests. Bromolysergide hydrochloride 30 μg per Kg body weight was dissolved into distilled water and then given once every 5 days for a total of 3 doses per os. Alterations in consciousness, thought disturbances, and vital signs (blood pressure, heart rate) were measured during a three to four hour observational period following administration. Patients were asked to continue completing daily headache diaries for the next months or until they experience 3 days of attacks of a starting new cluster series.

Series [3] shares this test system. The experiment in a line: Side effects, consciousness, thought disturbances and vital signs observed three to four hours after bromolysergide administration (Example 3). The class given is in vivo, human.
From the text: as §1

The conditions of series [4]: daily prophylactic administration over time; rare; cited from earlier work.
For series [5] the following is noted: cited from earlier work.
The mark [6] stands for this setting: subject 1, 2 mg (30 μg/kg) orally three times, for ten weeks.
Where [7] appears, read: subject 2, 2.5 mg orally three times.

On to `CCN(CC)C(=O)[C@@H]1C=C2c3cccc4[nH]c(Br)c(c34)C[C@H]2N(C)C1` [bromolysergide, 2-bromolysergic acid diethylamide], for which the “rating of results (Clinical Global Impressions Scale)” value in series [1] (subject 1, chronic cluster headache, 2 mg (30 μg/kg) orally three times) was “minimally improved”; in series [1] (subject 2, chronic cluster headache for more than 6 years, 2.5 mg (approximately 30 μg/kg) orally three times), “marked/very much improved”. The “duration of improvement before reverting to pre-treatment form” value in series [1] (subject 1, 2 mg (30 μg/kg) orally three times) was “ten”. In series [1] (setting [6]), the reduction in pain was 30%. In addition, the “reduction of attack frequency” value in series [1] (setting [6]) was 30%. Also, the “International Headache Society criteria for chronic cluster headache disorder after treatment” value in series [1] (setting [7]) is on record as “no longer met criteria”. Also, in series [1] (setting [7]), the remission of symptoms entry is on record as “complete or nearly complete remission of symptoms”. The “time free of attacks” value in series [1] (subject 2, 2.5 mg orally three times, at last follow-up) is listed as “more than 3 months”. For the same compound, the “overall effect on cluster headache cycle, frequency and intensity of attacks” value in series [2] (five treatment-refractory patients, three single doses of 30 μg/kg within 10 days, FIG. 1) was “can either break a cluster headache cycle or considerably improve the frequency and intensity of attacks; also recorded: quite effective at breaking cluster headache cycle; also recorded: can break a cluster headache cycle, convert a chronic cluster headache disorder into an episodic cluster headache disorder, and extend the remission period”. The attack frequency result in series [2] (patient S1, chronic form, 30 μg/kg per os ×3) is recorded as “did not show this pronounced attack reduction”; in series [2] (patient S3, chronic form, 30 μg/kg per os ×3), “pronounced reduction of attack frequency”; in series [2] (patient S4, chronic form, 30 μg/kg per os ×3) it was “profound reduction of attack frequency”; in series [2] (patient S5, chronic form, 30 μg/kg per os ×3), “pronounced reduction of attack frequency”. Further, the “decrease of attack intensity” value in series [2] (patient S1, chronic form, 30 μg/kg per os ×3, within the first 4 months, continued to drink alcohol) is “about 30%”. Besides, the “outcome of cluster period” value in series [2] (patient S2, episodic form, 30 μg/kg per os once every 5 days, 3 doses) is “termination of their cluster period”. For the same compound, the remission period result in series [2] (patient S2, episodic form, 30 μg/kg per os ×3, at last follow-up and continuing) is reported as “six”. Further, the “pain intensity during remaining occasional attacks” value is listed as “such reductions of pain intensity during their remaining occasional attacks that they no longer administered an acute intervention” in series [2] (patient S3, 30 μg/kg per os ×3) and “such reductions of pain intensity during their remaining occasional attacks that they no longer administered an acute intervention” in series [2] (patient S4, 30 μg/kg per os ×3). Also, the “continuous period of attack quiescence” value is “greater than 4 week” in series [2] (patient S3, 30 μg/kg per os ×3) and “greater than 4 week” in series [2] (patient S5, 30 μg/kg per os ×3). Besides, in series [2] (patient S4, 30 μg/kg per os ×3), the “continuous break of attacks” value was “did not show a continuous 4-week break of attacks”. In addition, the “duration of side effect” value in series [3] (each of the five subjects, 30 μg/kg per os) is “about 2 hours”. The “changes to heart rate and blood pressure” value in series [3] (five patients, during bromolysergide treatment) is on record as “No changes”. In series [3] (five patients, 30 μg/kg per os), the “duration of mild subjective effects” value is “one to two”. For the same compound, in series [3] (five patients, 30 μg/kg per os), the “hallucinogenic or psychotic effects” value was “No visual hallucinations or distortions occurred nor was there any evidence of delusional thinking or overt psychosis; also recorded: non-hallucinogenic”. Besides, the other side effects result in series [3] (five patients, apart from very mild alterations of subjective state and mild to no sympathetic reactions) is given as “no other side effects were observed”. Moreover, the subjective feelings recorded entry in series [3] (most of the patients, 30 μg/kg per os) is on record as ““flabby” or “light drunk” feelings”. Also, the subjective effects noted entry in series [3] (patient S2, 30 μg/kg per os) is ““funny” feeling, tense muscles, and sweating of their hands”. For the same compound, the Vital signs entry was “unchanged” in series [3] (subject S1, 2.5 mg ×3); “unchanged” in series [3] (subject S2, 2.0 mg ×3); “unchanged” in series [3] (subject S3, 3.1 mg ×3); “unchanged” in series [3] (subject S4, 3.1 mg ×3); “unchanged” in series [3] (subject S5, 2.2 mg ×3). In addition, the Side effects result in series [3] (subject S1, 2.5 mg ×3, cell wraps into r25: “flabby feeling”) was ““flabby”; in series [3] (subject S2, 2.0 mg ×3, cell wraps into r25: “funny feeling”), ““funny”; in series [3] (subject S3, 3.1 mg ×3), ““slightly”; in series [3] (subject S4, 3.1 mg ×3) it was ““slightly”; in series [3] (subject S5, 2.2 mg ×3) it was ““slightly”.
Turning to `CC[C@@H](CO)NC(=O)[C@@H]1C=C2c3cccc4c3c(cn4C)C[C@H]2N(C)C1` [methysergide], the “serious medical complication in the longstanding user” value in series [4] was “fibrotic reactions (retroperitoneal, pulmonary, pleural, and cardiac)”. Moreover, in series [5] (Abrahamson et al., J. Asthma Res. 3:81 (1965)), the “dose estimated to be equivalent to 25 micgrograms LSD” value is listed as “ca. 4 mg”. Further, the hallucinogenic effect entry in series [5] (supra-therapeutic doses) is on record as “hallucinogenic”.
